Assay results from US4123612A, “7-(5-Am ino-5-carboxyvaleramido)-3-(carbamoyoloxymethyl)-3-cephem-4-carboxylic acid” (Eli Lilly and Company, priority 1974, dated 1978).

How the values were obtained:
[1] = system: Klebsiella-Aerobacter KA 25; assay: Bauer-Kirby disc diffusion, zone of inhibition; format: cell-based
Escherichia coli 0127 = assay: Bauer-Kirby disc diffusion, zone of inhibition; format: cell-based
Salmonella typhosa SA 16 = assay: Bauer-Kirby disc diffusion, zone of inhibition; details: Salmonella enterica
Description: (§1) The evaluation was made on the monoammonium salts of separated factors I and II.

Pseudomonas sp. Ps 24 = assay: Bauer-Kirby disc diffusion, zone of inhibition; format: cell-based
solubility = format: physicochemical
Salmonella typhosa SA 12 = assay: Bauer-Kirby disc diffusion, zone of inhibition; details: Salmonella enterica
Description: as §1

[2] = system: Staphylococcus aureus 3055; assay: Bauer-Kirby disc diffusion, zone of inhibition; format: cell-based
Proteus sp. PR7 = assay: Bauer-Kirby disc diffusion, zone of inhibition; format: cell-based
[3] = system: Ascaris lumbricoides var. suum; assay: anthelmintic evaluation in mice by treated feed, separate factors (Example 13); format: in vivo; details: 0.05 percent in diet, control 2.66
Description: The feeds were utilized as diets for separate groups of mice, five mice per group. About twelve hours after initiation of the feeding, the mice were infected with Ascaris lumbricoides var. suum ova. Another group of five mice was fed the non-medicated feed to serve as a control but was similarly infected at the same time with Ascaris lumbricoides var. suum. All groups were fed their respective feed and maintained under normal laboratory conditions for a period of eight days, at which time all mice were taken off feed. On the ninth day, all mice were sacrificed and the lungs examined to determine the presence, and if present, numbers, of lesions of Ascaris lumbricoides var. suum.
In a further evaluation, the monoammonium salts of A16886I and A16886II were separately evaluated for the control of Ascaris lumbricoides var. suum. The evaluations were conducted in accordance with the procedure reported in Example 11 at a concentration in the diet of 0.05 percent.

Pseudomonas solanacearum = format: in vivo; details: 100 ppm.; 0 = no control, 4 = complete control; heavy infestation in controls
[4] = system: Klebsiella-Aerobacter KA 14; assay: Bauer-Kirby disc diffusion, zone of inhibition; format: cell-based
Proteus sp. PR6 = assay: Bauer-Kirby disc diffusion, zone of inhibition; format: cell-based
[5] = system: Staphylococcus aureus 3074; assay: Bauer-Kirby disc diffusion, zone of inhibition; format: cell-based
physchem = details: 66% dimethylformamide-water
Pseudomonas sp. Ps 30 = assay: Bauer-Kirby disc diffusion, zone of inhibition; format: cell-based
Escherichia coli EC 25 = assay: Bauer-Kirby disc diffusion, zone of inhibition; format: cell-based

SMILES: COC1(NC(=O)CCCC(N)C(=O)O)C(=O)N2C(C(=O)O)=C(COC(N)=O)CS[C@@H]21 (stereo partly drawn) [A16886I, 7-(5-amino-5-carboxyvaleramido)-3-(carbamoyloxymethyl)-7-methoxy-3-cephem-4-carboxylic acid]
- zone of inhibition at 0.5 µg/disc ([1]; 0.5 μg./disc): 0 mm
- zone of inhibition at 1 µg/disc ([1]; 1.0 μg./disc): 0 mm
- zone of inhibition at 2.5 µg/disc ([1]; 2.5 μg./disc): 9 mm
- zone of inhibition at 5 µg/disc ([1]; 5 μg./disc): 12.3 mm
- zone of inhibition at 10 µg/disc ([1]; 10 μg./disc): 15.8 mm
- zone of inhibition at 30 µg/disc ([1]; 30 μg./disc): 22.1 mm
- zone of inhibition at 0.5 µg/disc (Escherichia coli 0127; 0.5 μg./disc): 8.4 mm
- zone of inhibition at 1 µg/disc (Escherichia coli 0127; 1.0 μg./disc): 12.7 mm
- zone of inhibition at 2.5 µg/disc (Escherichia coli 0127; 2.5 μg./disc): 15.9 mm
- zone of inhibition at 5 µg/disc (Escherichia coli 0127; 5 μg./disc): 18.6 mm
- zone of inhibition at 10 µg/disc (Escherichia coli 0127; 10 μg./disc): 20.7 mm
- zone of inhibition at 30 µg/disc (Escherichia coli 0127; 30 μg./disc): 25.6 mm
- zone of inhibition at 0.5 µg/disc (Salmonella typhosa SA 16): 0 mm
- zone of inhibition at 1 µg/disc (Salmonella typhosa SA 16): 9.3 mm
- zone of inhibition at 2.5 µg/disc (Salmonella typhosa SA 16): 13.1 mm
- zone of inhibition at 5 µg/disc (Salmonella typhosa SA 16): 16.2 mm
- zone of inhibition at 10 µg/disc (Salmonella typhosa SA 16): 19.6 mm
- zone of inhibition at 30 µg/disc (Salmonella typhosa SA 16): 24.2 mm
- zone of inhibition at 0.5 µg/disc (Pseudomonas sp. Ps 24; SP.PS24, 0.5 μg./disc): 0 mm
- zone of inhibition at 1 µg/disc (Pseudomonas sp. Ps 24; SP.PS24, 1.0 μg./disc): 10.1 mm
- zone of inhibition at 2.5 µg/disc (Pseudomonas sp. Ps 24; SP.PS24, 2.5 μg./disc, * = satellite colonies within zone (Factor II)): 13.2 mm
- zone of inhibition at 5 µg/disc (Pseudomonas sp. Ps 24; SP.PS24, 5 μg./disc, * = satellite colonies within zone (Factor II)): 15.7 mm
- zone of inhibition at 10 µg/disc (Pseudomonas sp. Ps 24; SP.PS24, 10 μg./disc): 18.2 mm
- zone of inhibition at 30 µg/disc (Pseudomonas sp. Ps 24; SP.PS24, 30 μg./disc): 23 mm
- solubility in acetonitrile and other organic solvents (solubility; acetonitrile and other organic solvents): essentially insoluble
- solubility in lower alkanols (solubility; lower alkanols): slightly soluble
- solubility in water (solubility; water): very soluble
- zone of inhibition at 0.5 µg/disc (Salmonella typhosa SA 12): 8 mm
- zone of inhibition at 1 µg/disc (Salmonella typhosa SA 12): 11.3 mm
- zone of inhibition at 2.5 µg/disc (Salmonella typhosa SA 12): 16.9 mm
- zone of inhibition at 5 µg/disc (Salmonella typhosa SA 12): 19.9 mm
- zone of inhibition at 10 µg/disc (Salmonella typhosa SA 12): 22.8 mm
- zone of inhibition at 30 µg/disc (Salmonella typhosa SA 12): 27.2 mm
- zone of inhibition at 0.5 µg/disc ([2]; 0.5 μg./disc): 0 mm
- zone of inhibition at 1 µg/disc ([2]; 1.0 μg./disc): 0 mm
- zone of inhibition at 2.5 µg/disc ([2]; 2.5 μg./disc): 0 mm
- zone of inhibition at 5 µg/disc ([2]; 5 μg./disc): 0 mm
- zone of inhibition at 10 µg/disc ([2]; 10 μg./disc): 0 mm
- zone of inhibition at 30 µg/disc ([2]; 30 μg./disc): 0 mm
- zone of inhibition at 0.5 µg/disc (Proteus sp. PR7; 0.5 μg./disc): 0 mm
- zone of inhibition at 1 µg/disc (Proteus sp. PR7; 1.0 μg./disc): 0 mm
- zone of inhibition at 2.5 µg/disc (Proteus sp. PR7; 2.5 μg./disc): 0 mm
- zone of inhibition at 5 µg/disc (Proteus sp. PR7; 5 μg./disc): 0 mm
- zone of inhibition at 10 µg/disc (Proteus sp. PR7; 10 μg./disc): 10.4 mm
- zone of inhibition at 30 µg/disc (Proteus sp. PR7; 30 μg./disc): 14 mm
- Average Number of Lung Lesions Per Group [3]: 0.46
- Disease Rating (Pseudomonas solanacearum): 4
- zone of inhibition at 0.5 µg/disc ([4]; 0.5 μg./disc): 0 mm
- zone of inhibition at 1 µg/disc ([4]; 1.0 μg./disc): 7.6 mm
- zone of inhibition at 2.5 µg/disc ([4]; 2.5 μg./disc): 11.4 mm
- zone of inhibition at 5 µg/disc ([4]; 5 μg./disc): 15.4 mm
- zone of inhibition at 10 µg/disc ([4]; 10 μg./disc): 18.8 mm
- zone of inhibition at 30 µg/disc ([4]; 30 μg./disc): 23 mm
- zone of inhibition at 0.5 µg/disc (Proteus sp. PR6; 0.5 μg./disc): 0 mm
- zone of inhibition at 1 µg/disc (Proteus sp. PR6; 1.0 μg./disc): 9.9 mm
- zone of inhibition at 2.5 µg/disc (Proteus sp. PR6; 2.5 μg./disc): 13.6 mm
- zone of inhibition at 5 µg/disc (Proteus sp. PR6; 5 μg./disc): 16.7 mm
- zone of inhibition at 10 µg/disc (Proteus sp. PR6; 10 μg./disc): 19 mm
- zone of inhibition at 30 µg/disc (Proteus sp. PR6; 30 μg./disc): 23.2 mm
- zone of inhibition at 0.5 µg/disc ([5]; 0.5 μg./disc): 0 mm
- zone of inhibition at 1 µg/disc ([5]; 1.0 μg./disc): 0 mm
- zone of inhibition at 2.5 µg/disc ([5]; 2.5 μg./disc): 0 mm
- zone of inhibition at 5 µg/disc ([5]; 5 μg./disc): 0 mm
- zone of inhibition at 10 µg/disc ([5]; 10 μg./disc): 0 mm
- zone of inhibition at 30 µg/disc ([5]; 30 μg./disc): 0 mm
- pKa (physchem; pH 6.5, pK'a1): 4.1
- pKa (physchem; pH 6.5, pK'a2): 5.2
- pKa (physchem; pH 6.5, pK'a3): 9.3
- pKa (physchem; pH 6.5, pK'a4): 10.5
- zone of inhibition at 0.5 µg/disc (Pseudomonas sp. Ps 30; SP.PS30, 0.5 μg./disc): 0 mm
- zone of inhibition at 1 µg/disc (Pseudomonas sp. Ps 30; SP.PS30, 1.0 μg./disc): 0 mm
- zone of inhibition at 2.5 µg/disc (Pseudomonas sp. Ps 30; SP.PS30, 2.5 μg./disc): 0 mm
- zone of inhibition at 5 µg/disc (Pseudomonas sp. Ps 30; SP.PS30, 5 μg./disc): 0 mm
- zone of inhibition at 10 µg/disc (Pseudomonas sp. Ps 30; SP.PS30, 10 μg./disc): 0 mm
- zone of inhibition at 30 µg/disc (Pseudomonas sp. Ps 30; SP.PS30, 30 μg./disc): 0 mm
- zone of inhibition at 0.5 µg/disc (Escherichia coli EC 25; EC25, 0.5 μg./disc): 0 mm
- zone of inhibition at 1 µg/disc (Escherichia coli EC 25; EC25, 1.0 μg./disc): 0 mm
- zone of inhibition at 2.5 µg/disc (Escherichia coli EC 25; EC25, 2.5 μg./disc): 9.1 mm
- zone of inhibition at 5 µg/disc (Escherichia coli EC 25; EC25, 5 μg./disc): 12.5 mm
- zone of inhibition at 10 µg/disc (Escherichia coli EC 25; EC25, 10 μg./disc): 15.1 mm
- zone of inhibition at 30 µg/disc (Escherichia coli EC 25; EC25, 30 μg./disc): 19.6 mm
